Earlier results, collected in patent US20070141140A1, “Semi-solid formulations for immediate release intended for the oral administration of drugs” (PHARMACIA ITALISA S.P.A., priority 2003, published 2007).

Settings: for weight concentration in the semi-solid matrix above which dissolution velocity drops significantly: polyethylene glycol or Gelucire 44/14 matrix

| SMILES | weight concentration in the semi-solid matrix above which dissolution velocity drops significantly | active ingredient released (PEG 1500 matrix, 10% by weight Triamterene, 2 or 5% polysorbate 80 (Tween 80), in an hour) |
| --- | --- | --- |
| CN1C(=O)C(O)N=C(c2ccccc2)c2cc(Cl)ccc21 (stereo not drawn) [temazepam, Temazepam] | > 15% |  |
| Nc1nc(N)c2nc(-c3ccccc3)c(N)nc2n1 [Triamterene] | exceeding 5% | at least 80% |
